Measured values from US8377884B2, “Variants of C-type natriuretic peptides” (Biomarin Pharmaceutical Inc., priority 2007, dated 2013).
Where two headings read alike, the source gives them in different places. Bridge positions count the residues as written; N and C are the ends. Square brackets hold non-standard residues; d marks the D form. Peptide text beside a SMILES is read from it. * marks the point of attachment. CH3O(CH2CH2O)11CH2CH2CO = COCCOCCOCCOCCOCCOCCOCCOCCOCCOCCOCCOCCC(=O)*; Tle = CC(C)(C)[C@H](N)C(=O)O

Experiments:
[1] = biological target: T1, NPR-B (Mus musculus, UniProt Q6VVW5); experiment: Stimulation of cGMP production in NIH3T3 cells; assay type: cell-based, Murine; conditions: for cGMP response relative to 1 uM CNP22 (%) at 0.01 µM: read-out: cGMP Response rel. to 1 uM CNP22, 10 nM; for cGMP response relative to 1 uM CNP22 (%) at 1 µM: read-out: cGMP Response rel. to 1 uM CNP22, 1 uM
T1 construct: Murine NIH3T3 cells express endogenously the CNP signaling receptor, NPR-B; endogenous in cells; host or cells: NIH3T3 (murine fibroblasts)
T1 sequence (Q6VVW5 17-1047): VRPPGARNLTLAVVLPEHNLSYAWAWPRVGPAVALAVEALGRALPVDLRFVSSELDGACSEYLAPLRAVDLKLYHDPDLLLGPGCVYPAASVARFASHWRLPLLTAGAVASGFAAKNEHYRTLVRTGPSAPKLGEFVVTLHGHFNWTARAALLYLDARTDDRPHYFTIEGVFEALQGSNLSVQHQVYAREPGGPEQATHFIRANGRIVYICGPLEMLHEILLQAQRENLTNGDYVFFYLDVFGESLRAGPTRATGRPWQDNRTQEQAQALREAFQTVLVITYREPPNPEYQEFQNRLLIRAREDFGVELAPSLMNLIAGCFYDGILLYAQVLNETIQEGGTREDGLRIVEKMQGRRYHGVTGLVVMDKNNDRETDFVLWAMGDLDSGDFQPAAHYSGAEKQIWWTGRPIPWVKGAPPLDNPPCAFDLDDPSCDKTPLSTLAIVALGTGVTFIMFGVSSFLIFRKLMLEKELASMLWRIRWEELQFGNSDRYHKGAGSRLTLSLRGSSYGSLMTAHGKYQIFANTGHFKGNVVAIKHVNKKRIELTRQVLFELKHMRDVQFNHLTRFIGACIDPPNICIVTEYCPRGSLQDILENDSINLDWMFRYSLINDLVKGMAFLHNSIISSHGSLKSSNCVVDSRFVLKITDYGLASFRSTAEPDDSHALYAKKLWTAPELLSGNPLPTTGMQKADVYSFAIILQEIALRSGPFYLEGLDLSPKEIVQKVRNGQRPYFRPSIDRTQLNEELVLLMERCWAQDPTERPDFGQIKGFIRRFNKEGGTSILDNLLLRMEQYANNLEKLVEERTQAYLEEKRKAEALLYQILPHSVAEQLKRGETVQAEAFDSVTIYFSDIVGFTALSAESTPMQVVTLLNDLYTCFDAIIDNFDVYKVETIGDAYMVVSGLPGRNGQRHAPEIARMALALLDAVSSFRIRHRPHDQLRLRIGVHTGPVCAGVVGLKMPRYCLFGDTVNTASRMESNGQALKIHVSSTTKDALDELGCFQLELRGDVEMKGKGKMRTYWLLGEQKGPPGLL

[2] = biological target: Recombinant human NEP (Homo sapiens, UniProt P08473); experiment: in vitro
In short: (§1)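 Recombinant human NEP (1 ug/mL final) incubated with 100 uM CNP variant in 0.1 M Tris, pH 7, at 37° C for various times, then quenched with EDTA (10 mM final) and heat. Samples reduced and analysed by HPLC and mass spectrometry. Half-life derived from loss of intact variant over time.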

[3] = biological target: neutral endopeptidase (NEP) (Homo sapiens, UniProt P08473); experiment: in vitro; conditions: human, pH 7
In short: as §1

[4] = NIH3T3 cells, 10 nM natriuretic peptide, normalized to cell number and cGMP production with 1 uM wtCNP22
[5] = NIH3T3 cells, 1 uM natriuretic peptide, normalized to cell number and cGMP production with 1 uM wtCNP22
[6] = in vitro NEP cleavage assay, assay period 160 minutes

Recombinant human NEP, sequence (P08473 whole entry): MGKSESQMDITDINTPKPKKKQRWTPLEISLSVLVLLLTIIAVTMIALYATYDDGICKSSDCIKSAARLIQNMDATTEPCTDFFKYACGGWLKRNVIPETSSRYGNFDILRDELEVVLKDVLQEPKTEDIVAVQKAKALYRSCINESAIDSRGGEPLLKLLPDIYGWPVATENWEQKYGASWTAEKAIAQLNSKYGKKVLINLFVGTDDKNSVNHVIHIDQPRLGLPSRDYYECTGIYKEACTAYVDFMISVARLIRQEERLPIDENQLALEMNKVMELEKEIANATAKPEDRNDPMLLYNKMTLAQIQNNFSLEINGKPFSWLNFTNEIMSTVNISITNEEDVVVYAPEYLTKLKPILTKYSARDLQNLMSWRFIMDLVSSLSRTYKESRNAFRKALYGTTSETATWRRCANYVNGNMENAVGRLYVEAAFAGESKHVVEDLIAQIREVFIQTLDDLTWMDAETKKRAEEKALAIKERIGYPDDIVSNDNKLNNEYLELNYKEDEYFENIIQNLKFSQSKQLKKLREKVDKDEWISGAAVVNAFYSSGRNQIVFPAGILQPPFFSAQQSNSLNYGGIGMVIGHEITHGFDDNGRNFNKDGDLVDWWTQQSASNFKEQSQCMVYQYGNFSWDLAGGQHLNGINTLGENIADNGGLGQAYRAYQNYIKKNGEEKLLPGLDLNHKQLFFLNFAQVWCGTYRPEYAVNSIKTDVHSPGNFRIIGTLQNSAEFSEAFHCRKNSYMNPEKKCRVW
neutral endopeptidase (NEP), sequence (P08473 whole entry): as above

cGMP response relative to 1 uM CNP22 (%) at 0.01 µM [1, 4] [%]	cGMP response relative to 1 uM CNP22 (%) at 1 µM [1, 5] [%]	resistance to NEP cleavage/degradation (in words) [2]	SMILES	half-life at 100 uM [3] [h]	cGMP response relative to 1 uM CNP22 (%) at 0.01 µM ([1]; NIH3T3, […]) [%]	cGMP response relative to 1 uM CNP22 (%) at 1 µM ([1]; NIH3T3, […]) [%]	resistance to NEP cleavage/degradation (in words) [2, 6]	other results
2	32	most resistant to NEP degradation	CC[C@H](C)[C@@H]1NC(=O)[C@H](CCCNC(=N)N)NC(=O)[C@H](CC(=O)O)NC(=O)[C@H](CC(C)C)NC(=O)[C@H](CCCCN)NC(=O)[C@H](CC(C)C)NC(=O)CNC(=O)[C@H](Cc2ccccc2)NC(=O)[C@@H](NC(=O)CNC(=O)[C@H](CCCNC(=N)N)NC(=O)[C@H](CO)NC(=O)[C@H](CC(C)C)NC(=O)CNC(=O)[C@H](CCC(N)=O)NC(=O)[C@H](CCC(N)=O)NC(=O)[C@H](CC(N)=O)NC(=O)[C@H](C)NC(=O)CNC(=O)[C@@H](NC(=O)[C@H](Cc2ccc(O)cc2)NC(=O)[C@@H](NC(=O)[C@H](CCC(N)=O)NC(=O)[C@@H]2CCCN2C(=O)[C@H](CCC(=O)O)NC(=O)[C@H](CCCNC(=N)N)NC(=O)[C@@H]2CCCN2C(=O)[C@H](CCC(N)=O)NC(=O)CN)C(C)C)[C@@H](C)O)CSSC[C@@H](C(=O)O)NC(=O)CNC(=O)[C@H](CC(C)C)NC(=O)CNC(=O)[C@H](CO)NC(=O)[C@H](CCSC)NC(=O)[C@H](CO)NC(=O)CNC1=O [CK] (H-GQPREPQVYTGANQQGLSRGCFGLKLDRIGSMSGLGC-OH; disulfide 21-37 (inferred); N-terminus and C-terminus assumed)	≥ 2.67	–	–	–	–
3	35	most resistant to NEP degradation	CC[C@H](C)[C@@H]1NC(=O)[C@H](CCCNC(=N)N)NC(=O)[C@H](CC(=O)O)NC(=O)[C@H](CC(C)C)NC(=O)[C@H](CCCCN)NC(=O)[C@H](CC(C)C)NC(=O)CNC(=O)[C@H](Cc2ccccc2)NC(=O)[C@@H](NC(=O)CNC(=O)[C@H](CCCNC(=N)N)NC(=O)[C@H](CO)NC(=O)[C@H](CC(C)C)NC(=O)CNC(=O)[C@H](CCC(N)=O)NC(=O)[C@H](CCC(N)=O)NC(=O)[C@H](CC(N)=O)NC(=O)[C@H](C)NC(=O)CNC(=O)[C@@H](NC(=O)[C@H](CO)NC(=O)[C@@H](NC(=O)[C@H](CO)NC(=O)[C@@H](NC(=O)[C@H](CCC(N)=O)NC(=O)[C@@H]2CCCN2C(=O)[C@@H](NC(=O)CN)C(C)C)C(C)C)[C@@H](C)O)[C@@H](C)O)CSSC[C@@H](C(=O)O)NC(=O)CNC(=O)[C@H](CC(C)C)NC(=O)CNC(=O)[C@H](CO)NC(=O)[C@H](CCSC)NC(=O)[C@H](CO)NC(=O)CNC1=O [CL] (H-GVPQVSTSTGANQQGLSRGCFGLKLDRIGSMSGLGC-OH; disulfide 20-36 (inferred); N-terminus and C-terminus assumed)	> 2.67	–	–	–	–

The remaining lines, values behind:

SMILES	cGMP response relative to 1 uM CNP22 (%) at 0.01 µM [1, 4] [%]	cGMP response relative to 1 uM CNP22 (%) at 1 µM [1, 5] [%]	resistance to NEP cleavage/degradation (in words) [2]	half-life at 100 uM [3] [h]	cGMP response relative to 1 uM CNP22 (%) at 0.01 µM ([1]; NIH3T3, […]) [%]	cGMP response relative to 1 uM CNP22 (%) at 1 µM ([1]; NIH3T3, […]) [%]	resistance to NEP cleavage/degradation (in words) [2, 6]	other results
CC[C@H](C)[C@@H]1NC(=O)[C@H](CCCNC(=N)N)NC(=O)[C@H](CC(=O)O)NC(=O)[C@H](CC(C)C)NC(=O)[C@H](CCCCN)NC(=O)[C@H](CC(C)C)NC(=O)[C@H](C(C)(C)C)NC(=O)[C@H](Cc2ccccc2)NC(=O)[C@@H](NC(=O)CNC(=O)[C@H](CCCCN)NC(=O)[C@H](CO)NC(=O)[C@H](CC(C)C)NC(=O)CN)CSSC[C@@H](C(=O)O)NC(=O)CNC(=O)[C@H](CC(C)C)NC(=O)CNC(=O)[C@H](CO)NC(=O)[C@H](CCSC)NC(=O)[C@H](CO)NC(=O)CNC1=O [F] (H-GLSKGCF[Tle]LKLDRIGSMSGLGC-OH; disulfide 6-22 (inferred); N-terminus and C-terminus assumed)	2	18	–	–	–	–	–	resistance to cleavage at the Cys6-Phe7 bond relative to wtCNP22 [2]: resistance or improved resistance; half-life at 100 uM ([3]; recombinant human neutral endopeptidase (NEP)): 1.33 h
CC[C@H](C)[C@@H]1NC(=O)[C@H](CCCNC(=N)N)NC(=O)[C@H](CC(=O)O)NC(=O)[C@H](CC(C)C)NC(=O)[C@H](CCCCN)NC(=O)[C@H](CC(C)C)NC(=O)CNC(=O)[C@H](Cc2cccc(Cl)c2)NC(=O)[C@@H](NC(=O)CNC(=O)[C@H](CCCCN)NC(=O)[C@H](CO)NC(=O)[C@H](CC(C)C)NC(=O)CN)CSSC[C@@H](C(=O)O)NC(=O)CNC(=O)[C@H](CC(C)C)NC(=O)CNC(=O)[C@H](CO)NC(=O)[C@H](CCSC)NC(=O)[C@H](CO)NC(=O)CNC1=O [G]	–	–	–	2.25	17	93	–	half-life in comparison to wtCNP22 ([2]; NEP at 1 ug/ml): about 1.5 times; resistance to cleavage at the Cys6-Phe7 bond relative to wtCNP22 ([2]; data not shown): resistance or improved resistance; resistance to cleavage of the Gly8-Leu9 bond ([2]; in the presence of 1 ug/mL NEP, data not shown): exhibited resistance
CC[C@H](C)[C@@H]1NC(=O)[C@H](CCCNC(=N)N)NC(=O)[C@H](CC(=O)O)NC(=O)[C@H](CC(C)C)N(C)C(=O)[C@H](CCCCN)NC(=O)[C@H](CC(C)C)N(C)C(=O)CNC(=O)[C@H](Cc2ccccc2)NC(=O)[C@@H](NC(=O)CNC(=O)[C@H](CCCCN)NC(=O)[C@H](CO)NC(=O)[C@H](CC(C)C)NC(=O)CN)CSSC[C@@H](C(=O)O)NC(=O)CNC(=O)[C@H](CC(C)C)N(C)C(=O)CNC(=O)[C@H](CO)NC(=O)[C@H](CCSC)NC(=O)[C@H](CO)NC(=O)CNC1=O [L]	–	–	–	0.5	18	10	significantly shorter half-life	–
CC[C@H](C)[C@@H]1NC(=O)[C@H](CCCNC(=N)N)NC(=O)[C@H](CC(=O)O)NC(=O)[C@H](CC(C)C)N(C)C(=O)[C@H](CCCCN)NC(=O)[C@H](CC(C)C)N(C)C(=O)CNC(=O)[C@H](Cc2ccccc2)NC(=O)[C@@H](NC(=O)CNC(=O)[C@H](CCCCN)NC(=O)[C@H](CO)NC(=O)[C@H](CC(C)C)NC(=O)CN)CSSC[C@@H](C(=O)O)NC(=O)CNC(=O)[C@H](CC(C)C)NC(=O)CNC(=O)[C@H](CO)NC(=O)[C@H](CCSC)NC(=O)[C@H](CO)NC(=O)CNC1=O [M]	–	–	–	> 2.67	1	11	greatest resistance to NEP cleavage	–
CC[C@@H](C)[C@H]1NC(=O)[C@@H](CCCNC(=N)N)NC(=O)[C@@H](CC(=O)O)NC(=O)[C@@H](CC(C)C)NC(=O)[C@@H](CCCCN)NC(=O)[C@@H](CC(C)C)NC(=O)CNC(=O)[C@@H](Cc2ccccc2)NC(=O)[C@H](NC(=O)CNC(=O)[C@@H](CCCCN)NC(=O)[C@@H](CO)NC(=O)[C@@H](CC(C)C)NC(=O)CN)CSSC[C@H](C(=O)O)NC(=O)CNC(=O)[C@@H](CC(C)C)NC(=O)CNC(=O)[C@@H](CO)NC(=O)[C@@H](CCSC)NC(=O)[C@@H](CO)NC(=O)CNC1=O [N]	–	–	–	> 2.67	2	1	greatest resistance to NEP cleavage	–
CC[C@H](C)[C@@H]1NC(=O)[C@H](CCCNC(=N)N)NC(=O)[C@H](CC(=O)O)NC(=O)[C@H](CC(C)C)NC(=O)[C@H](CCCCN)NC(=O)[C@H](CC(C)C)NC(=O)CNC(=O)[C@H](Cc2ccccc2)NC(=O)[C@@H](NC(=O)CNC(=O)[C@H](CCCNC(=N)N)NC(=O)[C@H](CO)NC(=O)[C@H](CC(C)C)NC(=O)CNC(=O)[C@H](CCCNC(=N)N)NC(=O)[C@H](CCCNC(=N)N)NC(=O)[C@H](CC(N)=O)NC(=O)[C@H](C)NC(=O)CNC(=O)CCOCCOCCOCCOCCOCCOCCOCCOCCOCCOCCOCCOC)CSSC[C@@H](C(=O)O)NC(=O)CNC(=O)[C@H](CC(C)C)NC(=O)CNC(=O)[C@H](CO)NC(=O)[C@H](CCSC)NC(=O)[C@H](CO)NC(=O)CNC1=O [PEO12-GANRR-CNP22, K4R (CNP27)] ({CH3O(CH2CH2O)11CH2CH2CO}-GANRRGLSRGCFGLKLDRIGSMSGLGC-OH; disulfide 11-27; C-terminus assumed)	40 ± 2	99 ± 13	much more resistant to NEP degradation than CNP22	> 2.67	–	–	–	NPR-B stimulation activity / cGMP production compared with wtCNP22 (in words) ([1]; NIH3T3 cells): substantially the same NPR-B stimulation activity as CNP22
